Assay results reported in US20240124503A1, “HETEROAROMATIC PHOSPHONIUM SALTS AND THEIR USE TREATING CANCER” (FLORATEK PHARMA S.A., priority 2021, published 2024).
Where two headings read alike, the source gives them in different places.

Columns and labels:
Type in all cases: cell-based
CH-17-0091 = assay: Cell viability, bile duct PDX CH-17-0091
Experimental: (§1) PDX-derived cell cultures were obtained from tumors explanted from mice and isolated by mechanical and enzymatic dissociation. […] Cells were harvested and seeded in 96-wells plates at a density of 1.25 to 5×10^3 cells/well for cytotoxicity assays. Cells were incubated 48 h at 37° C. prior to addition of test molecules and vehicle (DMSO, 0.1%) at desired final concentrations. Cell viability was assessed before drugs' addition (To) and 5 days after test molecules addition by measuring ATP cell content using CellTiter-Glo® Luminescent Cell Viability Assay (Promega) according to the manufacturer's instructions. Luciferase activity was measured on a luminometer (PerkinElmer® EnVision™). Each concentration of compounds was tested in triplicate.
(§2) Viability was calculated as a percentage of ATP value compared to vehicle treated controls.
(§3) For PDX primary cell cultures, the tumour tissue was washed with PBS containing antibiotic-antimycotic and non-tumour tissue and necrotic tumour tissues were separated. The tumour tissue was transferred to a new dish and cut into 1˜2 mm^3 fragments, resuspended in RPMI-1640 medium and centrifuged at 1,200 rpm for 6 min at room temperature. The pelleted material was resuspended with 15 mL of Tumour Cell Digestion Solution and incubated at 37° C. for 1 hour with agitation. […]

CH-17-0098 = assay: Cell viability, bile duct PDX CH-17-0098
Experimental: as §1, §2, §3

MCF-7 = assay: Cell viability assay, MCF-7; settings: breast carcinoma cell line MCF-7
Experimental: (§4) Antitumor activity of the compounds and doxorubicin as a positive control was assessed by using the CellTiter-Blue Cell Viability Assay (Promega, #G8082) or CellTiter-Glow® Luminescent Cell Viability assay (Promega #G7572) according to the manufacturer's instructions. The compounds were tested at 5 or 6 concentrations in half-log increments (highest concentration 30 μM or 100 μM) in duplicate or triplicate well conditions.
(§5) Tumor cells were grown at 37° C. in a humidified atmosphere with 5% CO2 in RPMI 1640 or DMEM medium, supplemented with 10% (v/v) fetal calf serum and 50 μg/ml gentamicin for up to 20 passages, and were passaged once or twice weekly. Cells were harvested using TrypLE or PBS buffer containing 1 mM EDTA, and the percentage of viable cells was determined using a CASY Model TI cell counter (OMNI Life Science). Cells were harvested from exponential phase cultures, counted and plated in 96 well flat-bottom microtiter plates at a cell density depending on the cell line's growth rate (4,000-20,000 cells/well depending on the cell line's growth rate, up to 60,000 for hematological cancer cell lines) in RPMI 1640 or DMEM medium supplemented with 10% (v/v) fetal calf serum and 50 μg/ml gentamicin (140 μl/well). […] Viability of cells was quantified by the CellTiter-Blue® cell viability assay (Promega G8081) or CellTiter-Glow® Luminescent Cell Viability assay (Promega #G7572). […]

HCT-116 = assay: Cell viability assay, HCT-116; settings: colon carcinoma cell line HCT-116
Experimental: as §4, §5

HCT-15 = assay: Cell viability assay, HCT-15; settings: colon carcinoma cell line HCT-15
Experimental: as §4, §5

KM-12 = assay: Cell viability assay, KM-12; settings: colon carcinoma cell line KM-12
Experimental: as §4, §5

CO-04-0701 = assay: Cell viability, colon PDX CO-04-0701
Experimental: as §1, §2, §3

EN-11-0101 = assay: Cell viability, endometrial PDX EN-11-0101
Experimental: as §1, §2
For PDX primary cell cultures, the tumour tissue was washed with PBS containing antibiotic-antimycotic and non-tumour tissue and necrotic tumour tissues were separated. The tumour tissue was transferred to a new dish and cut into 1˜2 mm^3 fragments, resuspended in RPMI-1640 medium and centrifuged at 1,200 rpm for 6 min at room temperature. The pelleted material was resuspended with 15 mL of Tumour Cell Digestion Solution and incubated at 37° C. for 1 hour with agitation. Following further addition of media, centrifugation and passage through a 70 μm cell strainer, the homogenous cell mixture was layered onto 15 mL of Ficoll-Paque PLUS in a 50 mL conical tube and centrifuged for 15 min at 1,600 rpm. The interface cells were collected, washed with media, separated by centrifugation at 1,200 rpm. The cell pellet was resuspended in serum free media supplemented with growth factors. 10,000 cells/wells were plated in a 96 well plate and incubated at 37° C., 5% CO2, 95% air and 100% relative humidity overnight. The cytotoxicity assay was conducted as above.
Sigmoidal concentration-response curves were fitted to the data points (test-versus-control, T/C values) obtained for each tumor model using GraphPad prism 5.02 software.

ES-06-0002 = assay: Cell viability, esophagus PDX ES-06-0002
Experimental: as §1, §2, §3

ES-06-0122 = assay: Cell viability, esophagus PDX ES-06-0122
Experimental: as §1, §2, §3

HL-60 = assay: Cell viability assay, HL-60
Experimental: as §4
Tumor cells were grown at 37° C. in a humidified atmosphere with 5% CO2 in RPMI 1640 or DMEM medium, supplemented with 10% (v/v) fetal calf serum and 50 μg/ml gentamicin for up to 20 passages, and were passaged once or twice weekly. Cells were harvested using TrypLE or PBS buffer containing 1 mM EDTA, and the percentage of viable cells was determined using a CASY Model TI cell counter (OMNI Life Science). Cells were harvested from exponential phase cultures, counted and plated in 96 well flat-bottom microtiter plates at a cell density depending on the cell line's growth rate (4,000-20,000 cells/well depending on the cell line's growth rate, up to 60,000 for hematological cancer cell lines) in RPMI 1640 or DMEM medium supplemented with 10% (v/v) fetal calf serum and 50 μg/ml gentamicin (140 μl/well). Cultures were incubated at 37° C. and 5% CO2 in a humidified atmosphere. After 24 h, 10 μl of test compounds or control medium were added and left on the cells for another 72 h. Compounds were serially diluted in DMSO, transferred in cell culture medium, and added to the assay plates. The DMSO concentration was kept constant at <0.3% v/v across the assay plate. Viability of cells was quantified by the CellTiter-Blue® cell viability assay (Promega G8081) or CellTiter-Glow® Luminescent Cell Viability assay (Promega #G7572). Fluorescence (FU) was measured by using the EnSpire® multimode plate reader (Perkin Elmer) (excitation λ=570 nm, emission λ=600 nm) Luminescence was measured with a microplate luminometer (Promega or PerkinElmer). […]

LU-01-0027 = assay: Cell viability, lung PDX LU-01-0027
Experimental: as §1, §2, §3

LU-01-0604 = assay: Cell viability, lung PDX LU-01-0604
Experimental: as §1, §2, §3

OVCAR-3 = assay: Cell viability assay, OVCAR-3; settings: ovarian carcinoma OVCAR-3
Experimental: as §4, §5

PC-07-0045 = assay: Cell viability, pancreatic PDX PC-07-0045
Experimental: as §1, §2, §3

PC-07-0059 = assay: Cell viability, pancreatic PDX PC-07-0059
Experimental: as §1, §2, §3

22Rv1 = assay: Cell viability assay, 22Rv1; settings: prostate carcinoma cell line 22Rv1
Experimental: as §4, §5

ST-02-0173 = assay: Cell viability, stomach PDX ST-02-0173
Experimental: as §1, §2, §3

ST-020012 = assay: Cell viability, stomach PDX ST-020012
Experimental: as §1, §2, §3

ST-02-0322 = assay: Cell viability, stomach PDX ST-02-0322
Experimental: as §1, §2, §3

[1] = endometrial PDX EN-11-0101, read-out: IC50

| Structure (SMILES) | IC50 (CH-17-0091) [µM] | IC50 (CH-17-0098) [µM] | IC50 (CO-04-0701) [µM] | IC50 (EN-11-0101; [1]) [µM] | IC50 (ES-06-0002) [µM] | IC50 (ES-06-0122) [µM] | IC50 (LU-01-0027) [µM] | IC50 (LU-01-0604) [µM] | IC50 (PC-07-0045) [µM] | IC50 (PC-07-0059) [µM] | IC50 (ST-02-0173) [µM] | IC50 (ST-020012) [µM] | IC50 (ST-02-0322) [µM] | also measured |
| --- | --- | --- | --- | --- | --- | --- | --- | --- | --- | --- | --- | --- | --- | --- |
| COc1c(O)ccc2c(=O)c(O)c(-c3ccc(CCCC[P+](c4ccccc4)(c4ccccc4)c4ccccc4)cc3)oc12 [SND190, (4-(4-(3,7-Dihydroxy-8-methoxy-4-oxo-4H1-chromen-2-yl)phenyl)butyl)triphenylphosphonium bromide] | 4 | 4 | 14.7 | 7.9 | 4.9 | 6.5 | 4 | 2 | 3.4 | 2.3 | 11 | 4.5 | 6.3 | IC50 (MCF-7; Homo sapiens, MCF7): 3.91 µM; IC50 (HCT-116; Homo sapiens): 0.81 µM; IC50 (HCT-15; Homo sapiens): 15 µM; IC50 (KM-12; Homo sapiens, KM12): 1.7 µM; IC50 (EN-11-0101; Table 8, read-out: IC50, endometrial PDX growth): < 20 µM; IC50 (HL-60; Homo sapiens, HL-60, summary of Table 12, read-out: IC50, leukaemia cell growth): < 1 µM; IC50 (HL-60; Homo sapiens, leukaemia cell line HL-60, read-out: IC50): 0.3 µM; IC50 (OVCAR-3; Homo sapiens): 3.81 µM; IC50 (22Rv1; Homo sapiens): 0.79 µM |
| O=c1cc(-c2ccc(CCC[P+](c3ccccc3)(c3ccccc3)c3ccccc3)cc2)oc2c(O)c(O)ccc12 [SND200, (3-(4-(7,8-Dihydroxy-4-oxo-4H1-chromen-2-yl)phenyl)propyl)triphenylphosphonium bromide] | 9.5 | 7.5 | 15.1 | 10.4 | 11.6 | 8.8 | 1.8 | 7.8 | 2.3 | 6.7 | 15.5 | 8.8 | 8.5 | IC50 (MCF-7): 1.68 µM; IC50 (HCT-116): 1.48 µM; IC50 (HCT-15): 7.49 µM; IC50 (KM-12): 0.44 µM; IC50 (HL-60; leukaemia cell line HL-60, read-out: IC50): 0.3 µM; IC50 (OVCAR-3): 1.6 µM; IC50 (22Rv1): 0.42 µM |
